Assay results published in patent US11541030B2, “Methods for the treatment of inflammation associated with infection” (NOXOPHARM LIMITED, priority 2020, dated 2023).

What was measured:
[1] = system: TLR4 (LPS); assay: LPS-induced IL-6 in hTERT immortalised foreskin fibroblasts; assay type: cell-based, human; details: 2.5 uM IDX or H151 pre-treatment, 7 h LPS (100 ng/ml)
Experimental: (§1) IL-6 levels were measured in the supernatants by ELISA.
(§2) To determine the specificity of IDX on STING signalling, human hTERT immortalised foreskin fibroblasts which have functional TLR4 (LPS) and TLR3 (PolyI:C) responsiveness were tested. […] (FIG. 6).

[2] = system: TLR3 (PolyI:C); assay: PolyI:C-induced IL-6 in hTERT immortalised foreskin fibroblasts; assay type: cell-based, human; details: 2.5 uM IDX or H151 pre-treatment, 7 h polyI:C (20 ug/ml)
Experimental: as §1, §2

[3] = system: TC-1 cells (cGAS-STING); assay: CPT-induced IL-6 in TC-1 cells; details: TC-1, 0.5 μM CPT 48 hours; H151 1.8 μM, IDX 2.5 μM
Experimental: FIG. 7: Mouse TC-1 cells were plated in the presence of 0.5 μM CPT for 48 hours, with the following compounds, where indicated: H151 (1.8 μM), IDX (2.5 μM). IL-6 levels were determined by ELISA. Data shown are averaged from 2 (for H151) or 3 independent experiments (conducted with biological replicate), ±standard deviation (SD). […] Each point represents the mean data for each independent experiment; the column represents the mean of the experiments. *, P≤0.05; **, P≤0.01; ***, P≤0.001; ****, P≤0.0001, ns: non-significant.
Cell culture and reagents.
Murine IP-10 production and IL-6 in supernatant of iBMMs and TC-1 was quantified using Mouse CXCL10/IP-10/CRG-2 Duo Set ELISA (R&D systems, #Dy466) and the IL6 OptE1A ELISA Kit mouse (BD Bioscience, #555240), respectively, according to the manufacturer's protocol. Similarly, human IP-10, TNF-α and IL-6 production was measured in cell supernatants using human IP-10 OptEIA ELISA kit (BD Biosciences, #555157), human OptEIA TNF-α kit (BD Bioscience, #555212) and human IL-6 OptEIA ELISA Set (BD Biosciences, #555220). Tetramethylbenzidine substrate (ThermoFisher Scientific) was used for quantification of the cytokines on a Fluostar OPTIMA (BMG LABTECH) plate-reader.

[4] = system: STING signalling (STING, TBK1, IRF3, p-65); assay: Western blotting of DMXAA-stimulated immortalised mouse bone marrow derived macrophages; assay type: cell-based; details: 2.5 uM IDX 1 h
Experimental: FIG. 11: Immortalised mouse bone marrow derived macrophages were pre-treated for 1 hour with 2.5 uM IDX prior to stimulation for an indicated amount of time with DMXAA (50 ug/mL), and then lysed and analysed by Western blotting using specific total or phospho-antibody. The results on STING and p-STING are representative of 3 independent experiments.
Western Blotting: Following lysis in RIPA buffer supplemented with complete mini protease inhibitor cocktail (Sigma #4693124001) and phosSTOP inhibitor (Sigma #4906845001), the samples were subjected to SDS-Page analyses, on NuPAGE 4%-12% Bis-Tris Protein Gels (Thermo Scientific) with MES or MOPS running buffer (Thermo Scientific), as previously reported (4). Anti-Sting (#13647), Phospho-Sting (#72971), TBK1 (#3013), phospho-TBK1 (#5483), IKKe (#3416), phospho-IKKe (#8766), IRF-3 (#4302), phosphor-IRF3 (#4947), p-65 (#4764), phospho-p-65 (#3033) antibodies were all from Cell Signalling. Anti-beta-Actin antibodies (#Ab49900) were from Abcam.
To further determine the direct activity of IDX on STING, immortalised mouse bone marrow derived macrophages were stimulated with DMXAA for 1, 2 or 3 hours in the presence of IDX (FIG. 11). The cell lysates were analysed by Western blotting using specific total or phospho-antibody against STING, TBK1, IRF3, and p-65 (FIG. 11). In support of its inhibitory activity on downstream STING signaling, IDX decreased phosphorylation of TBK1 and IRF3 and also STING itself. […] While these effects could all be dependent on TBK1 inhibition by IDX, the inventors also observed decreased p-65 phosphorylation that was not dependent on TBK1 in this cell system (4).

[5] = target: T1, human STING (Homo sapiens, UniProt Q86WV6, G230A/H232R/R293Q/R71H); assay: STING agonist-driven IP-10 and IFNβ in THP-1 cells; assay type: cell-based; details: THP-1, 2.5 uM IDX 1 hour
T1 construct: endogenous in cells; host or cells: human THP-1 cells
T1 sequence (Q86WV6 whole entry R71H/G230A/H232R/R293Q): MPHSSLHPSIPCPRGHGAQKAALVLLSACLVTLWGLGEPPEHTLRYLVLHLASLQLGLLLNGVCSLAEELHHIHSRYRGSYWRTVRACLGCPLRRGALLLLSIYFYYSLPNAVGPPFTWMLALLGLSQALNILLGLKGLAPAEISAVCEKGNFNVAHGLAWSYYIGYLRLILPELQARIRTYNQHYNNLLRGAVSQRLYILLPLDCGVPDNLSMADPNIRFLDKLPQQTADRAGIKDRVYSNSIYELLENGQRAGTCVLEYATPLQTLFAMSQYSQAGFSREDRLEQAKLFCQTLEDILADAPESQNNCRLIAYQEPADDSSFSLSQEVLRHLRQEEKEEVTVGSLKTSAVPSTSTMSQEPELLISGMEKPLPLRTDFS

[6] = system: human hTERT fibroblasts; assay: Cell proliferation of hTERT fibroblasts; assay type: cell-based; details: 10 μM IDX, 72 hours
[7] = system: basal STING signalling in Trex1-mutant mice; assay type: in vivo, mouse; details: 2 mg/kg i.p. daily for 10 days
[8] = system: influenza A virus (IAV) driven lung inflammation; assay: Influenza A virus infection in lung TGF-β1 transgenic mice; assay type: in vivo, mouse; details: 5 mg/kg daily from day 1 after IAV infection until day 3
[9] = Fresh versus frozen DMSO stock comparison; assay type: physicochemical; details: 40 mM stock in DMSO kept frozen at −20C
[10] = target: T2, mouse STING (Mus musculus, UniProt Q3TBT3); assay: DMXAA-induced ISRE-luciferase in L929 cells; details: 2.5 uM IDX; DMXAA up to 100 ug/ml
T2 sequence (Q3TBT3 1-378): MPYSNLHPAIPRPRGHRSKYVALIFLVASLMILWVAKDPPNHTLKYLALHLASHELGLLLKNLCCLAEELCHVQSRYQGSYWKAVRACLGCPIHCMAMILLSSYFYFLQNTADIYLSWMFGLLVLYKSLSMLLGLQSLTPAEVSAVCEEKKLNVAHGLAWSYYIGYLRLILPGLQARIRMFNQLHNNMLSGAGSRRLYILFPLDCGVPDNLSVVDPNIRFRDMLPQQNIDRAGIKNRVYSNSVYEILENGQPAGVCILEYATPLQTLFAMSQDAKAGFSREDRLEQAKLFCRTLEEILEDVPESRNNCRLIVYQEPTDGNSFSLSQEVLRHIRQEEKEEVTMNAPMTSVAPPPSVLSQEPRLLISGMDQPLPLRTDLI
Experimental: FIG. 2: Mouse L929 cells stably expressing an IFN-stimulated responsive element (ISRE)-luciferase reporter were pre-treated for 1 h with indicated doses of IDX, prior an 8 h stimulation with 20 ug/ml DMXAA. Cells were lysed and firefly luciferase was quantified at the end of the experiment. Data shown are averaged from 2 independent experiments in biological triplicate, relative to DMXAA and DMSO only condition control (±SEM).
Luciferase assays were carried out at 8 hours. Data were normalised to DMSO+DMXAA only condition, and are shown as averages from 3 independent experiments (conducted with biological replicate), ±SD. Each point represents the mean data for each independent experiment; the column represents the mean of the experiments.
To determine whether IDX could inhibit STING signalling more directly, mouse L929 cells stably expressing an IFN-stimulated-responsive luciferase (ISRE-Luc) were pretreated with IDX at various doses for 1 h, prior to DMXAA stimulation for 8 h (FIG. 2).
Using mouse L929 cells stably expressing an interferon (IFN)-stimulated responsive element (ISRE)-Luciferase construct referred to as LL171 cells (2) and stimulated with the murine STING agonist DMXAA, the inventors speculated that the DMXAA-induced IFN-β production and downstream ISRE-Luciferase expression would only be minimally impacted by IDX if it selectively acted on NF-κB signalling.

[11] = system: human STING (PBMCs); assay: STING agonist-induced IL-6 and TNFα in human PBMCs; details: PBMCs from two donors, 2.5 μM IDX pre-treatment, GSK STING agonist 100 nM 6 hours
Experimental: The supernatants were collected and analysed for IL-6 and TNFα production by ELISA. Data shown are as average from 2 independent donors (conducted with biological replicate for each donor), ±SEM.
Similarly, human IP-10, TNF-α and IL-6 production was measured in cell supernatants using human IP-10 OptEIA ELISA kit (BD Biosciences, #555157), human OptEIA TNF-α kit (BD Bioscience, #555212) and human IL-6 OptEIA ELISA Set (BD Biosciences, #555220). Tetramethylbenzidine substrate (ThermoFisher Scientific) was used for quantification of the cytokines on a Fluostar OPTIMA (BMG LABTECH) plate-reader.

[12] = system: cGAS/STING (mouse STING-mCherry), IFN-β-luciferase reporter; assay: IFN-β-luciferase reporter in HEK-Sting cells overexpressing cGAS-GFP; details: different doses overnight
Experimental: FIG. 1: Human HEK cells constitutively expressing mouse STING-mCherry were co-transfected with cGAS-GFP and an interferon (IFN)beta-luciferase (A) or an NF-κB-Luc reporter (B) reporter for 3 h prior to being treated overnight with indicated concentration of IDX (in equal volume of DMSO). Firefly luciferase was quantified the next day. Data shown are averaged from 2 (B) or 3 (A) independent experiments in biological triplicate, relative to DMSO only condition control (±SEM).
Cell culture and reagents.
Cell transfections: HEK Sting cells were reverse transfected with 200 ng of IFNb-Luciferase reporter and 400 ng of cGAS-GFP overexpression vector, using 1.8 ul lipofectamine 2000 and ˜600,000 cells, per well of a 96 well plate (as previously reported (8)). After 3 h, the cells were collected and aliquoted in 12 wells of a 96 well plate (for each well of a 6 well plate), and treated with indicated doses of IDX overnight, prior lysis in 40 ul of Glo lysis buffer the next day (Promega). Luciferase assays were carried out using the Promega Luciferase Assay System on a on a Fluostar OPTIMA (BMG LABTECH) plate-reader.

[13] = system: basal Sting signalling; assay: Interferon stimulated genes in primary BMDMs from Trex1-mutant mice (RT-qPCR); details: overnight 1.25 and 2.5 μM IDX

CCc1ccc(NC(=O)Nc2c[nH]c3ccccc23)cc1 [H151, reference compound]
IL-6 production, LPS stimulation [1]: only modestly reduced
IL-6 production, PolyI:C stimulation [2]: only modestly reduced
CPT-induced IL-6 production [3]: strongly reduced

Oc1ccc(C2=Cc3ccc(O)cc3OC2)cc1 [IDX, 2H-1-Benzopyran-7-0,1,3-(4-hydroxyphenyl)]
IL-6 production, LPS stimulation [1]: only modestly reduced
IL-6 production, PolyI:C stimulation [2]: only modestly reduced
p-65 phosphorylation ([4]; DMXAA 50 ug/mL 1, 2 or 3 hours): decreased
phosphorylation of IRF3 ([4]; DMXAA 50 ug/mL 1, 2 or 3 hours): decreased
phosphorylation of STING ([4]; DMXAA 50 ug/mL 1, 2 or 3 hours): decreased
phosphorylation of TBK1 ([4]; DMXAA 50 ug/mL 1, 2 or 3 hours): decreased
shift in size of total STING (STING activation) ([4]; DMXAA 50 ug/mL, 3-hour period): attenuated
IP-10 production driven by ADU-S100 ([5]; ADU-S100 30 uM 6 hours): strongly inhibited
IP-10 production driven by synthetic STING agonist (GSK) ([5]; GSK agonist 100 nM 6 hours): strongly inhibited
reduction of IFNβ production ([5]; synthetic STING agonist (GSK) 100 nM 6 hours, IFNβ ELISA): ~50%
impact on cell proliferation [6]: little impact
Ifi44 expression in the spleen [7]: decreased
Ifih1 expression in the spleen [7]: decreased
Isg15 expression in the spleen [7]: significant decreased
Rsad2 expression in the spleen [7]: decreased
serum TNFα levels ([7]; compared to PBS controls): decrease
IL-6 in bronchial alveolar lavages [8]: significantly reduce
activity of fresh versus frozen IDX stock [9]: did not show any difference of activity
CPT-induced IL-6 production [3]: significantly reduced
effect of increasing DMXAA on inhibition of ISRE-Luc [10]: did not reverse the inhibition
IL-6 production [11]: reduced
TNFα production [11]: reduced
inhibition of IFN-β-luciferase [12]: potent inhibitor
Ifih1 expression [13]: dose-dependent inhibition
Ifit1 expression [13]: dose-dependent inhibition
Rsad2 expression [13]: dose-dependent inhibition

CC(=O)Oc1ccccc1C(=O)O [aspirin]
CPT-induced IL-6 production [3]: strongly reduced
